In ChEMBL document CHEMBL1201862, “PubChem BioAssay data set” (2004):
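Growth conditions: 96-well plates. Treatment: test compound, 48 hours, 5 concentrations. Analysis: linear interpolation between bracketing concentrations; unreached endpoints set to highest concentration. At the GI50, growth is halved.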 Active and inactive are the calls of the source. Cut-off read from the data, not from the text of the source: active = GI50 up to about 1.1 µM and inactive = higher.

Columns and labels:
Assay in all cases: NCI anticancer screen, dose series, 48 h
ACHN = system: ACHN
UACC-257 = system: UACC-257
CAKI-1 = system: CAKI-1
DLD-1 = system: DLD-1
NCI-H226 = system: NCI-H226
SK-MEL-2 = system: SK-MEL-2
UO-31 = system: UO-31
T47D = system: T47D
HCC 2998 = system: HCC 2998
SN12C = system: SN12C
TK-10 = system: TK-10
SF-295 = system: SF-295
MOLT-4 = system: MOLT-4
UACC-62 = system: UACC-62
NCI-H522 = system: NCI-H522
SK-MEL-28 = system: SK-MEL-28
HCT-15 = system: HCT-15
MDA-MB-231 = system: MDA-MB-231
OVCAR-3 = system: OVCAR-3
A549 = system: A549

O=C(NC(=O)c1c(F)cccc1F)Nc1cccc(Oc2ncc(Cl)cn2)c1
GI50 (ACHN): 99.3 µM (inactive) | GI50 (UACC-257): > 100 µM (inactive) | GI50 (CAKI-1): 30 µM (inactive) | GI50 (DLD-1): > 100 µM (inactive) | GI50 (NCI-H226): 62.7 µM (inactive) | GI50 (SK-MEL-2): > 51.6 µM (inactive) | GI50 (UO-31): > 100 µM (inactive) | GI50 (T47D): > 35.2 µM (inactive) | GI50 (HCC 2998): 4.73 µM (inactive) | GI50 (SN12C): 45.1 µM (inactive) | GI50 (TK-10): > 100 µM (inactive) | GI50 (SF-295): 32.3 µM (inactive) | GI50 (MOLT-4): > 80.5 µM (inactive) | GI50 (UACC-62): 36.6 µM (inactive) | GI50 (NCI-H522): 20.3 µM (inactive) | GI50 (SK-MEL-28): > 100 µM (inactive) | GI50 (HCT-15): 3.27 µM | GI50 (MDA-MB-231): > 71.6 µM (inactive) | GI50 (OVCAR-3): 40.4 µM (inactive) | GI50 (A549): > 39.9 µM (inactive)

Nc1ccc(Sc2c3ccccc3nc3ccccc23)cc1
GI50 (ACHN): 12.3 µM (inactive) | GI50 (UACC-257): 16.6 µM (inactive) | GI50 (CAKI-1): 18.5 µM (inactive) | GI50 (DLD-1): 6 µM (inactive) | GI50 (NCI-H226): 18.7 µM (inactive) | GI50 (SK-MEL-2): 16.9 µM (inactive) | GI50 (UO-31): 17.5 µM (inactive) | GI50 (T47D): 2.06 µM (inactive) | GI50 (HCC 2998): 24.4 µM (inactive) | GI50 (SN12C): 18.5 µM (inactive) | GI50 (TK-10): 13.4 µM (inactive) | GI50 (SF-295): 19.1 µM (inactive) | GI50 (MOLT-4): 3.02 µM (inactive) | GI50 (UACC-62): 15.2 µM (inactive) | GI50 (NCI-H522): 6.15 µM (inactive) | GI50 (SK-MEL-28): 15.2 µM (inactive) | GI50 (HCT-15): 17.2 µM | GI50 (MDA-MB-231): 14.7 µM (inactive) | GI50 (OVCAR-3): 15.6 µM (inactive) | GI50 (A549): 33.3 µM (inactive)

Cc1nc2ccccc2c(=O)n1NC(=S)Nc1cccc(Cl)c1
GI50 (ACHN): > 100 µM (inactive) | GI50 (UACC-257): > 100 µM (inactive) | GI50 (CAKI-1): > 100 µM (inactive) | GI50 (DLD-1): > 100 µM (inactive) | GI50 (NCI-H226): > 100 µM (inactive) | GI50 (SK-MEL-2): > 100 µM (inactive) | GI50 (UO-31): > 100 µM (inactive) | GI50 (SN12C): > 100 µM (inactive) | GI50 (TK-10): > 100 µM (inactive) | GI50 (SF-295): > 100 µM (inactive) | GI50 (MOLT-4): > 100 µM (inactive) | GI50 (UACC-62): > 100 µM (inactive) | GI50 (NCI-H522): 33.7 µM (inactive) | GI50 (SK-MEL-28): > 100 µM (inactive) | GI50 (HCT-15): > 100 µM | GI50 (A549): > 100 µM (inactive)

Cc1ccc(NCCN(C)C)c2c(=O)c3cc(O)ccc3sc12
GI50 (ACHN): 1 µM (active) | GI50 (UACC-257): 8 µM (inactive) | GI50 (CAKI-1): 1.31 µM (inactive) | GI50 (DLD-1): 6.61 µM (inactive) | GI50 (NCI-H226): 4.48 µM (inactive) | GI50 (SK-MEL-2): 20.5 µM (inactive) | GI50 (UO-31): 4.23 µM (inactive) | GI50 (T47D): 7.91 µM (inactive) | GI50 (HCC 2998): 3.79 µM (inactive) | GI50 (SN12C): 1.94 µM (inactive) | GI50 (TK-10): 17.6 µM (inactive) | GI50 (SF-295): 5.27 µM (inactive) | GI50 (MOLT-4): 0.0454 µM (active) | GI50 (UACC-62): 2.95 µM (inactive) | GI50 (NCI-H522): 4.33 µM (inactive) | GI50 (SK-MEL-28): 6.01 µM (inactive) | GI50 (HCT-15): 2.69 µM | GI50 (MDA-MB-231): 1.87 µM (inactive) | GI50 (OVCAR-3): 9.33 µM (inactive) | GI50 (A549): 0.214 µM (active)

O/N=C/c1cc2c(cc1Br)OCO2
GI50 (ACHN): > 100 µM (inactive) | GI50 (UACC-257): > 100 µM (inactive) | GI50 (CAKI-1): > 100 µM (inactive) | GI50 (DLD-1): > 100 µM (inactive) | GI50 (NCI-H226): > 100 µM (inactive) | GI50 (SK-MEL-2): > 100 µM (inactive) | GI50 (UO-31): > 100 µM (inactive) | GI50 (HCC 2998): > 100 µM (inactive) | GI50 (SN12C): > 100 µM (inactive) | GI50 (TK-10): > 100 µM (inactive) | GI50 (SF-295): > 100 µM (inactive) | GI50 (MOLT-4): > 100 µM (inactive) | GI50 (UACC-62): > 100 µM (inactive) | GI50 (NCI-H522): > 100 µM (inactive) | GI50 (HCT-15): > 100 µM | GI50 (OVCAR-3): > 100 µM (inactive) | GI50 (A549): > 100 µM (inactive)

Clc1ccc(OCCSCCCCCCCCCCSCCOc2ccc(Cl)cc2)cc1
GI50 (ACHN): > 100 µM (inactive) | GI50 (UACC-257): > 100 µM (inactive) | GI50 (CAKI-1): > 100 µM (inactive) | GI50 (DLD-1): > 100 µM (inactive) | GI50 (NCI-H226): > 100 µM (inactive) | GI50 (SK-MEL-2): > 100 µM (inactive) | GI50 (UO-31): > 100 µM (inactive) | GI50 (HCC 2998): > 100 µM (inactive) | GI50 (SN12C): > 100 µM (inactive) | GI50 (TK-10): > 100 µM (inactive) | GI50 (SF-295): > 100 µM (inactive) | GI50 (MOLT-4): > 100 µM (inactive) | GI50 (UACC-62): > 100 µM (inactive) | GI50 (NCI-H522): > 100 µM (inactive) | GI50 (SK-MEL-28): > 100 µM (inactive) | GI50 (HCT-15): > 100 µM | GI50 (OVCAR-3): > 100 µM (inactive) | GI50 (A549): > 100 µM (inactive)

CC(C)(C)c1nc2c(o1)C(=O)c1ccccc1C2=O
GI50 (ACHN): 2.28 µM (inactive) | GI50 (UACC-257): 0.519 µM (active) | GI50 (CAKI-1): 2.78 µM (inactive) | GI50 (DLD-1): 5.83 µM (inactive) | GI50 (NCI-H226): 3.3 µM (inactive) | GI50 (SK-MEL-2): 0.592 µM (active) | GI50 (UO-31): 2.81 µM (inactive) | GI50 (T47D): 0.627 µM (active) | GI50 (HCC 2998): 4.25 µM (inactive) | GI50 (SN12C): 0.959 µM (active) | GI50 (TK-10): 5.65 µM (inactive) | GI50 (SF-295): 1.93 µM (inactive) | GI50 (MOLT-4): 1.76 µM (inactive) | GI50 (UACC-62): 0.653 µM (active) | GI50 (NCI-H522): 1.43 µM (inactive) | GI50 (SK-MEL-28): 1.95 µM (inactive) | GI50 (HCT-15): 2.48 µM | GI50 (MDA-MB-231): 0.385 µM (active) | GI50 (OVCAR-3): 0.721 µM (active) | GI50 (A549): 3.53 µM (inactive)

O=S(=O)(O)C1=C2Sc3ccccc3N=C2c2ccccc2C1
GI50 (ACHN): 12.5 µM (inactive) | GI50 (UACC-257): 17.1 µM (inactive) | GI50 (CAKI-1): 20.1 µM (inactive) | GI50 (DLD-1): 15.3 µM (inactive) | GI50 (NCI-H226): 20.3 µM (inactive) | GI50 (SK-MEL-2): 14.6 µM (inactive) | GI50 (UO-31): 19.4 µM (inactive) | GI50 (HCC 2998): 12.2 µM (inactive) | GI50 (SN12C): 13.8 µM (inactive) | GI50 (TK-10): 18.4 µM (inactive) | GI50 (SF-295): 13.8 µM (inactive) | GI50 (MOLT-4): 4.88 µM (inactive) | GI50 (UACC-62): 13.2 µM (inactive) | GI50 (NCI-H522): 16.7 µM (inactive) | GI50 (SK-MEL-28): 17.3 µM (inactive) | GI50 (HCT-15): 13.6 µM | GI50 (OVCAR-3): 17.5 µM (inactive) | GI50 (A549): 16.2 µM (inactive)

c1ccc(C2[C@@H]3CCCc4ccccc4C3=NN2c2ccccc2)cc1 (some centres undefined)
GI50 (ACHN): > 100 µM (inactive) | GI50 (UACC-257): > 100 µM (inactive) | GI50 (DLD-1): 51.6 µM (inactive) | GI50 (NCI-H226): > 100 µM (inactive) | GI50 (UO-31): > 100 µM (inactive) | GI50 (HCC 2998): > 100 µM (inactive) | GI50 (SN12C): > 100 µM (inactive) | GI50 (TK-10): > 100 µM (inactive) | GI50 (SF-295): > 100 µM (inactive) | GI50 (MOLT-4): 48.6 µM (inactive) | GI50 (NCI-H522): 35 µM (inactive) | GI50 (SK-MEL-28): > 100 µM (inactive) | GI50 (HCT-15): 52.5 µM | GI50 (OVCAR-3): 31.8 µM (inactive) | GI50 (A549): > 100 µM (inactive)
